# In patent US20060094664A1, “Deoxycholic acid derivatives for the treatment of acute dysfunctions of portal and hepatic venous circulation” (priority 2002, published 2006):
# Marks after values point to notes of the source that are not given here.
# Assays:
# [1] = test system: Wistar rats subjected to ligature of bile duct; experiment: Portal and systemic pressure after a week treatment in rats with bile duct ligature; type: in vivo, rat; conditions: for Portal pressure After a week treatment: bile duct ligated Wistar rats, 0.04 mmol/kg twice a day intragastric for one week
# Description: Twenty one Wistar rats were divided in three groups of 7 animals each and then subjected to ligature of bile duct. Within three weeks following the ligature, the animals were left on rest. As a consequence of the bile duct ligature, the animals developed dysfunctions of the hepatic and portal venous circulation. At the end of the third week, each group underwent the following weekly treatment protocol: • Group 1: control group treated with carrier (1% w/v water suspension of carboxymethylcellulose); • Group 2: treated with NO-urso at a dose of 28 mg/kg (0.04 mmol/kg), twice a day; • Group 3: treated with ursodeoxycholic acid (urso in table) at a dose of 15 mg/kg (0,04 mmol/kg), twice a day. The rested compounds have been administered by intragastric cannula in 1% water suspension of carboxymethylcellulose. At the end of the treatment (fourth week) the animals were anaesthetized with urethane and then systemic pressure (MAP) and portal pressure (PP) were monitored by catheterisation both of the carotid and portal vein. The animal liver was then continuously perfused with Krebs solution (40 ml/min) balanced with O2/CO2 (95%-5%) using a peristaltic pump (Gilson) In this way the pharmacological effect of both tested compounds has been evaluated.
# [2] = test system: rat liver perfused with norepinephrine solution; experiment: Perfused rat liver: intrahepatic constriction induced by norepinephrine, infusion of tested compound; type: in vivo; conditions: for Portal pressure % increase after NE infusion: liver perfused with norepinephrine 1 μM, then single infusion of 1 mM solution of tested compound
# Description: At the end of the treatment (fourth week) the animals were anaesthetized with urethane and then systemic pressure (MAP) and portal pressure (PP) were monitored by catheterisation both of the carotid and portal vein. The animal liver was then continuously perfused with Krebs solution (40 ml/min) balanced with O2/CO2 (95%-5%) using a peristaltic pump (Gilson) In this way the pharmacological effect of both tested compounds has been evaluated. The rat liver was then firstly perfused with norepinephrine solution (1 μM) in order to induce an intrahepatic circulation constriction. Afterwards, in groups 2 and 3 a single infusion with a 1 mM solution of each of the tested compounds was carried out and portal pressure variations have been monitored.
# [3] = test system: Wistar rats subjected to ligature of bile duct; experiment: Hepatic fibrosis evaluated by an immunocytochemical method in bile duct ligated rats; type: in vivo, rat; conditions: a week treatment in bile duct ligated rats
# Description: Twenty one Wistar rats were divided in three groups of 7 animals each and then subjected to ligature of bile duct. Within three weeks following the ligature, the animals were left on rest. As a consequence of the bile duct ligature, the animals developed dysfunctions of the hepatic and portal venous circulation. At the end of the third week, each group underwent the following weekly treatment protocol: • Group 1: control group treated with carrier (1% w/v water suspension of carboxymethylcellulose); • Group 2: treated with NO-urso at a dose of 28 mg/kg (0.04 mmol/kg), twice a day; • Group 3: treated with ursodeoxycholic acid (urso in table) at a dose of 15 mg/kg (0,04 mmol/kg), twice a day.
Structure (SMILES),"portal pressure reduction ([1]; after the week treatment, perfusion rate 40 ml/min, with respect to controls)",Portal pressure After a week treatment ([1]; perfusion rate 40 ml/min),"influence on systemic hemodynamic parameters (systemic pressure, cardiac frequency) ([1]; rat, in vivo)","increase of intrahepatic resistance induced by norepinephrine ([2]; 500% increase determined by NE infusion, NO-urso p<0.001)",Portal pressure % increase after NE infusion [2],influence on hepatic fibrosis [3],influence on hepatic fibrosis ([3]; listed as No-urso),"influence on systemic hemodynamic parameters (systemic pressure, cardiac frequency) ([1]; a week treatment in bile duct ligated rats)","portal pressure increase with respect to controls ([1]; after the week treatment, perfusion rate 40 ml/min)","Systemic hemodynamic parameters: Systemic pressure (MAP) ([1]; bile duct ligated rats after a week treatment, 0.04 mmol/kg twice a day, carotid catheterisation, in mmHg (unit assumed))","Systemic hemodynamic parameters: Cardiac frequency ([1]; bile duct ligated rats after a week treatment, 0.04 mmol/kg twice a day, in beats/min (unit assumed))"
"COc1cc(/C=C/C(=O)OCCCCO[N+](=O)[O-])ccc1OC(=O)CC[C@@H](C)[C@H]1CC[C@H]2[C@@H]3[C@@H](O)C[C@@H]4C[C@H](O)CC[C@]4(C)[C@H]3CC[C@]12C [NO-urso, (3α,5β,7β)-3,7-dihydroxycholan-24-oic Acid 2-methoxy-4[3-[4-(nitrooxy)butoxy]-3-oxo-1-propenyl]phenyl Ester]",3 mmHg,14* mmHg,do not influence,significantly reduced,180%,does not modify,do not influence,–,–,–,–
"C[C@H](CCC(=O)O)[C@H]1CC[C@H]2[C@@H]3[C@@H](O)C[C@@H]4C[C@H](O)CC[C@]4(C)[C@H]3CC[C@]12C [Urso, ursodeoxycholic acid]",–,19 mmHg,–,–,400%,–,–,do not influence,2 mmHg,95 ± 12,372 ± 41
